Common to all, as to type: biochemical
In one assay the target is T1, μ-calpain (Homo sapiens, UniProt P07384).
T1 construct: purchased Nakalai Tesque
T1 sequence (P07384 1-714): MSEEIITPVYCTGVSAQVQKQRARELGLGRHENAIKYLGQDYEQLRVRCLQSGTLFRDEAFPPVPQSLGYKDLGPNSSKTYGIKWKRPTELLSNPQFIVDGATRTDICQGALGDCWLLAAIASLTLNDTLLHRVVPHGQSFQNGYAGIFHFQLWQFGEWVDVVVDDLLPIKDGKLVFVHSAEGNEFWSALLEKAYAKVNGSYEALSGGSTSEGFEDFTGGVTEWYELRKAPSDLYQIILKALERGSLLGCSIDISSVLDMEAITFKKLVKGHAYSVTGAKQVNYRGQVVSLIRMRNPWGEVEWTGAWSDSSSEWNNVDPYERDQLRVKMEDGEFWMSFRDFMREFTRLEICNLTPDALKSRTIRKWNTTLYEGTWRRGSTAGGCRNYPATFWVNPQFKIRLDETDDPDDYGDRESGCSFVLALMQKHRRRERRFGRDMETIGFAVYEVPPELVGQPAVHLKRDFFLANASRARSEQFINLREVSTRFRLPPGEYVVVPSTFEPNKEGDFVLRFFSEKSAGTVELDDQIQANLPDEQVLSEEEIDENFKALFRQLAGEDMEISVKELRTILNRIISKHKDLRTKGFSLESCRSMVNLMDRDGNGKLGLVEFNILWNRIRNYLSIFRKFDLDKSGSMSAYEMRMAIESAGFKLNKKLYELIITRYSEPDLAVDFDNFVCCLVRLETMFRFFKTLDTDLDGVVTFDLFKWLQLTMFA
T1 sequence (P04632 1-268 partner): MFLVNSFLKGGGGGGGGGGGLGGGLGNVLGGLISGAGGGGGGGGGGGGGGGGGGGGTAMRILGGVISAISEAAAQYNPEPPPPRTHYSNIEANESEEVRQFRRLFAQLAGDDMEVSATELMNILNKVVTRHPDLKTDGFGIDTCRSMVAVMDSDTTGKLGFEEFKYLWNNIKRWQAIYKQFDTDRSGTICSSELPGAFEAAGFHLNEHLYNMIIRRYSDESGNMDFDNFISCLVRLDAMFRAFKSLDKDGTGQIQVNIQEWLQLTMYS
The experiment in a line: μ-Calpain-inhibitory activity (casein substrate). The settings on record: 60 minutes at 30° C., pH 7.4, 4 mM calcium chloride. As for the experimental part:
Thus, to a solution containing 0.5 mg/ml casein, 50 mM Tris-HCl (pH 7.4), 20 mM dithiothreitol, and 4 mM calcium chloride was added 2.5 μl of a dimethyl sulfoxide solution containing a varying concentration of the test drug as well as 0.03 unit of μcalpain to initiate the reaction. The final liquid volume was 250 μl. After 60 minutes of reaction at 30° C., 100 μl of the reaction mixture was transferred to another vessel, to which 50 μl of purified water and 100 μl of 50% Coumassie brilliant blue solution were added. […] As a control, 2.5 μl of dimethyl sulfoxide not containing the test drug was added and the mixture was treated in the same manner as above. […] Similarly, the value found by adding 0.2 mM EDTA in lieu of 4 mM aqueous calcium chloride solution was used as the blank value. […] [formula]

The target of another assay is T2, cathepsin L (Homo sapiens, UniProt P07711).
T2 construct: purchased Cosmo Bio
T2 sequence (P07711 114-333, species assumed): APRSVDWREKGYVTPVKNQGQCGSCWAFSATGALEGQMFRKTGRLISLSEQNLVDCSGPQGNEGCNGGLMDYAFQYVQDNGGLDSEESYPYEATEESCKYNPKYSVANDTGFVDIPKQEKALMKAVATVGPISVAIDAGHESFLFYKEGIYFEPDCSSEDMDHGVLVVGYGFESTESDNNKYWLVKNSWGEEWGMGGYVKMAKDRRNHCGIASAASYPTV
The experiment in a line: Assay of cathepsin L-inhibitory activity (Z-Phe-Arg-MCA). The conditions noted are these: 20 minutes at 30° C., pH 5.5. As for the experimental part: The activity of cathepsin L (Cosmo Bio), a cysteine protease, was assayed by the method described in the literature [Methods in Enzymology, 80, 535-561, 1981]. Thus, to a solution containing 85 mM acetate buffer (pH 5.5), 2 mM dithiothreitol, 1 mM EDTA, 2 μg cathepsin L, and a varying concentration of the test compound was added 50 μl of 20 μM carbobenzoxy-L-phenylalanyl-L-arginine-4-methylcoumaryl-7-amide (Z-Phe-Arg-MCA) to initiate the reaction at the final liquid volume of 200 μl. After 20 minutes of reaction at 30° C., 20 μl of 1 M Tris-HCl (pH 8.0) was added so as to stop the reaction. The amount of liberated 4-methyl-7-aminocoumarin was determined with a fluorospectrometer at an excitation wavelength of 360 nm and a fluorescent emission wave length of 450 nm. Using the value found without addition of the test drug as control and the value found without addition of the enzyme as blank, IC50 was determined in the same manner as above.

A further assay has as its target T3, papain (Carica papaya, UniProt P00784).
T3 sequence (P00784 134-345): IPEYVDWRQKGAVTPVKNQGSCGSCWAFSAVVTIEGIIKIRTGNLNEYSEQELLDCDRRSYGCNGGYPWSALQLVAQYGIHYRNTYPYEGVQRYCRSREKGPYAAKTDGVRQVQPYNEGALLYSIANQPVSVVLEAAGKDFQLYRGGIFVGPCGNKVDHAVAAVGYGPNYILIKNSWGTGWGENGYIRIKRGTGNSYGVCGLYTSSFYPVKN
The experiment in a line: Assay of papain-inhibitory activity (casein substrate). The settings on record: 60 minutes at 30° C., pH 8.0. As for the experimental part:
(§1) The activity of papain which is a cysteine protease and of trypsin (Sigma) which is a serine protease was assayed in accordance with the method described in the literature [Anal. Biochem., 208, 387-392, 1993]. Thus, to a solution containing 0.5 mg/ml casein, 50 mM Tris-HCl (pH 8.0), 20 mM dithiothreitol, and 0.2 mM EDTA was added 2.5 μl of dimethyl sulfoxide containing a varying concentration of the test drug as well as 0.03 unit of papain or trypsin to initiate the reaction. The final liquid volume was adjusted to 250 μl. After 60 minutes of reaction at 30° C., 100 μl of the reaction mixture was transferred to another vessel and following addition of 50 μl of purified water and 100 μl of 50% Coumassie brilliant blue solution, the mixture was allowed to stand at room temperature for 15 minutes. The absorbance of the mixture was then measured at 595 nm. Using the value found similarly by adding 2.5 μl of dimethyl sulfoxide not containing the test drug as control and the value found without addition of the enzyme as blank, IC50 was determined in the same manner as above.

A further assay has as its target T4, trypsin (UniProt P00760).
T4 sequence (P00760 1-246): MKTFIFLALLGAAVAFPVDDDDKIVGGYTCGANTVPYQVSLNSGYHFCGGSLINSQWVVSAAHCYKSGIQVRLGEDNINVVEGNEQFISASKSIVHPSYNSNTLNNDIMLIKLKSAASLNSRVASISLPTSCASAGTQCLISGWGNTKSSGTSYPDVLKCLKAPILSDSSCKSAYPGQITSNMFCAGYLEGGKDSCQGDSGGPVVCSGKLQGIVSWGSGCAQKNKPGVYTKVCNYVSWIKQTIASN
The experiment in a line: Assay of trypsin-inhibitory activity (casein substrate). The conditions noted are these: read-out: Trypsin 50% Inhibitory concentration (IC50); 60 minutes at 30° C., pH 8.0. How it is done:
as §1

For the molecule `CC(C)C[C@H](NC(=O)[C@H]1O[C@@H]1C(=O)O)C(=O)N1CCN(c2ccccc2Cl)CC1` [Compound 17, (2s,3s)-3-[[[[(1s)-1-[[4-(2-chlorophenyl)-1-piperazinyl]carbonyl]-3-methyl]butyl]amino]carbonyl]oxiranecarboxylic acid], the IC50 is 0.35 µM on μ-calpain, 0.027 µM at cathepsin L, 0.062 µM against papain and greater than 3000 µM on trypsin.
Consider `O=C(O)[C@H]1O[C@@H]1C(=O)NCC(=O)N1CCN(c2ccccc2Cl)CC1` [Compound 22, (2s,3s)-3-[[[[[4-(2-chlorophenyl)-1-piperazinyl]carbonyl]methyl]amino]carbonyl]oxiranecarboxylic acid], for which the IC50 at μ-calpain is 18 µM; against cathepsin L, 38 µM; on papain, 4 µM; on trypsin it was greater than 3000 µM.
As for `Cc1ccc(S(=O)(=O)N2CCN(C(=O)[C@H](CC(C)C)NC(=O)[C@H]3O[C@@H]3C(=O)O)CC2)cc1` [Compound 16, (2s,3s)-3-[[[[(1s)-1-[[4-(4-methylphenylsulfonyl)-1-piperazinyl]carbonyl]-3-methyl]butyl]amino]carbonyl]oxiranecarboxylic acid], the IC50 on μ-calpain is 0.64 µM; against cathepsin L, 0.082 µM; against papain, 0.21 µM; at trypsin it was greater than 3000 µM.
For the molecule `CC(C)C[C@H](NC(=O)[C@H]1O[C@@H]1C(=O)O)C(=O)N1CCN(c2ccc(F)cc2)CC1` [Compound 13], the IC50 is 0.81 µM at μ-calpain, 0.029 µM at cathepsin L, 0.079 µM on papain and greater than 3000 µM on trypsin.
For `O=C(O)[C@H]1O[C@@H]1C(=O)N[C@@H](Cc1ccccc1)C(=O)N1CCN(c2ccc(F)cc2)CC1` [Compound 11], in that order: 2.9 µM, 0.012 µM, 0.11 µM and greater than 3000 µM.

The values are drawn from patent US6551999B1, “Angiogenesis inhibitor” (Senju Pharmaceutical Co., Ltd., priority 1995, dated 2003).
